How the values were obtained:
[1] = DTNB assay for free sulfhydryls; settings: 5 mM XB05; 0.25 mM Cys or GSH, pH 8, 30 min, 37° C.
Method: FIG. 12: XB05 is Weakly Reactive with Thiols In Vitro: 0.25 mM Cysteine (Cys, top panel) or glutathione (GSH, bottom panel) were incubated with XB05, diethyl maleate (DEM), or maleimide at the indicated concentrations, or with an equivalent amount of vehicle (DMSO), for 30 min at 37° C. 5,5′-Dithiobis-2-nitrobenzoic acid (DTNB) assays were conducted as described in Methods. Absorbance for triplicate wells was determined at 412 nm. Points represent the mean and standard deviation for triplicate wells. Data shown are representative of two independent experiments.
Dithiobis-2-nitrobenzoic Acid (DTNB) Assay for Free Sulfhydryls. For each experiment, a 20× working solution of DTNB (2 mM DTNB, 50 mM sodium acetate in 100 mM Tris-HCl, pH 8.0) and 2× solutions of cysteine and GSH (0.5 mM in 100 mM Tris-HCl, pH 8.0) were freshly prepared. 10 mM stock solutions of XB05, diethyl maleate and maleimide were prepared in 100% DMSO, and subsequently serially diluted to 2× working solutions in 100 mM Tris-HCl, pH 8.0. 100 μl each of thiol compounds (final concentration 0.25 mM) and thiol-reactive compounds (final concentrations 0.05-5 mM) or vehicle control (DMSO) were added in duplicate to a 96-well plate and allowed to incubate at 37° C. for 30 minutes. […] Absorbance was read on a Biotek HT Synergy Plate reader (Winooski, Vt.) at 412 nm.

[2] = system: A549 cells; assay: Western blot for PARP-1 and caspase-3 cleavage; type: cell-based, human; settings: A549, 2 μM XB05
Method: (§1) FIG. 3: XB05 Induces Apoptotic and Nonapoptotic Cell Death in Malignant Cell Lines. (A) Trypan blue exclusion assay for three human cell lines following treatment with XB05 for 72 h at the concentrations indicated. Data points represent the mean+/−SEM for three independent experiments. (B) Representative phase contrast microscopy images of cells treated with vehicle (72 h), XB05 (72 h with 1 μM for U937 and Hs27, or 2 μM for A549), or 6 μg/mL camptothecin (U937 for 6 h, A549 and Hs27 for 48 h). Cells undergoing apoptotic (black arrows) or non-apoptotic (white arrows) cell death are indicated. (C) Whole cell extracts from cells treated with vehicle, camptothecin, or XB05, as described in part B were western blotted for biochemical markers of apoptosis and GAPDH (loading control). […]
(§2) Western Blotting. […] Proteins were detected using the following primary antibody concentrations: PARP-1 (1:1000), cleaved caspase-3 (1:1000), γ-H2AX (Ser139) ([…]), phospho-eIF2α (Ser51) (1:1000), eIF2α (1:1000), Bip (1:1000), Nrf2 (1:1000), Ku-70 (1:1000) and GAPDH (1:1000). […] Where indicated, band intensities were quantified using the UN-SCAN-IT Gel digitizing software (Silk Scientific, Orem Utah) and normalized to vehicle control.

[3] = system: U937 cells; assay: Western blot for PARP-1 and caspase-3 cleavage; type: cell-based, human; settings: U937, 1 μM XB05
Method: as §1, §2

[4] = system: A549 cells; assay: Western blot for Nrf2 in nuclear extracts; type: cell-based, human; settings: A549, 2 μM, 8 or 24 h
Method: (§3) FIG. 8: XB05 Modulates Cellular Stress Responses. (A) A luminescence-based assay for reduced glutathione (GSH) content in cells treated 24 h with XB05 (1 μM for U937 and Hs27, or 2 μM for A549), in the absence or presence of 5 mM GSH. Some cells were treated with buthionine sulfoximine (BSO, 200 μM) plus diethyl maleate (DEM, 1 mM) for 3 h as a positive control for GSH depletion. Bar graph indicates mean+/−SEM from three independent experiments. […] (C) Western blot for Nrf2 in nuclear extracts from cells treated as in part A for either 8 h or 24 h. Membranes were stripped and reprobed for Ku-70 as a loading control. (D) Western blot for phospho-eIF2α (Ser51), total eIF2-α, BiP/Grp78, and GAPDH (loading control) in whole cell extracts from cell lines treated as indicated for 24 h with concentrations of XB05 described in part A. Thapsigargin (TG, 2 μM) was used as a positive control for induction of endoplasmic reticulum (ER) stress.
(§4) Cell Extracts. […] Nuclear cells extracts were isolated using the NE-PER Nuclear and Cytoplasmic Extraction Kit (Thermo Scientific, Rockford, Ill.), per the manufacturer's protocol. For total cell extract, cells were lysed in RIPA buffer (Thermo Scientific) containing protease inhibitor cocktail III and phosphatase inhibitor cocktail (Calbiochem, Billerica, Mass.) for 5 min at 4° C., and then cleared by centrifugation at 16,000 g for 10 min at 4° C. All protein concentrations were determined using the DC Protein Assay™ kit (BioRad, Hercules, Calif.).
as §2

[5] = system: U937 cells; assay: Western blot for Nrf2 in nuclear extracts; type: cell-based, human; settings: U937, 1 μM, 8 or 24 h
Method: as §3, §4, §2

[6] = system: Hs27 cells; assay: Western blot for Nrf2 in nuclear extracts; type: cell-based, human; settings: Hs27, 1 μM, 8 or 24 h
Method: as §3, §4, §2

[7] = system: A549 cells; assay: GSH-Glo reduced glutathione content assay; type: cell-based, human; settings: A549, 2 μM XB05, 24 h
Method: as §3
(§5) Reduced Glutathione Content Analyses. After treatment as indicated in the figures and in the Brief Description of the Drawings, cells were harvested as described, counted and dispensed at a density of 10,000 cells/well in triplicate on a 96-well white, opaque bioluminescence plate (Corning). Cellular content of reduced glutathione (GSH) was analyzed using the GSH-Glo® Glutathione Assay Kit (Promega) according to the manufacturer's instructions. The chemiluminescent signal was quantified on a Biotek Synergy HT plate-reader (Biotek, Winooski, Vt.) using an integration time of 1 s/well.

[8] = system: Hs27 cells; assay: GSH-Glo reduced glutathione content assay; type: cell-based, human; settings: Hs27, 1 μM XB05, 24 h
Method: as §3, §5

## CCCCCC(O)C#CC(F)(F)Br (centres unmarked) [XB05]
[1]
  depletion of free thiols: 40-50%
[2]
  time at which PARP-1 and caspase-3 cleavage were apparent: 48 h
[3]
  time at which PARP-1 and caspase-3 cleavage were apparent: ≤ 24 h
[4]
  nuclear Nrf2: slight increase in nuclear levels of Nrf2
[5]
  nuclear Nrf2: decrease in nuclear Nrf2
[6]
  nuclear Nrf2: no change
[7]
  increase in GSH: approximately 1.3 fold
[8]
  increase in GSH: ~2 fold
